Drawing on PubChem BioAssay (NCI), this text covers GI50 and TGI for 21 compounds.

“And” between values parts separate entries of the source, which are not always exact repeats. Equal entries are not always repeated.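 1) Cells in 96-well plates. 2) Compound, 48 h, 5 concentrations. 3) Linear interpolation between surrounding doses. 4) Unreached endpoint = highest concentration. Here, GI50 denotes the concentration required for 50% inhibition of growth. TGI denotes the concentration required for complete inhibition of growth.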 Some results are limits rather than exact numbers.

Common to all, as to assay: NCI tumour cell line growth inhibition, 48 h
Experiment [1] deals with 786-0 renal.
In experiment [2] the test system is A498 renal.
Experiment [3] relates to ACHN renal.
The subject of experiment [4] is MALME-3M melanoma.
Experiment [5] has as its system MCF7 breast.
For experiment [6], the system named is NCI-H460 lung.
Experiment [7] has as its system OVCAR-3 ovarian.
Experiment [8] deals with OVCAR-5 ovarian.
In experiment [9] the test system is SK-OV-3 ovarian.
For experiment [10], the system named is OVCAR-8 ovarian.

Regarding `CCCCCCCCCCCCCCCCCCOc1ccccc1CC(=O)OCC[N+]1(C)CCCC1`, the GI50 in experiment [1] was 1.71 µM; in [2], 2.18 µM; in experiment [3] it was 4 µM; in experiment [4], 2.08 µM; in [5], 2.11 µM; in [6], 2.15 µM. The results for the GI50 in experiment [7], in experiment [8] and in experiment [9] were 1.63 µM, 2.02 µM and 18.9 µM, respectively. In addition, the TGI in experiment [1] was found to be 3.25 µM; in [2] it was 8.82 µM; in experiment [3] it was 16.4 µM; in [4], 5.22 µM; in [5], 4.76 µM; in [6], 4.65 µM. Also, the TGI was 3.13 µM in experiment [7], 5.31 µM in [8] and 38.8 µM in [9].
As to `Cn1c2ccccc2c(=O)c2ccc(Cl)cc21`, the TGI in experiment [1], in [4], in [5], in experiment [7], in [10] and in experiment [9] was over 10 µM throughout.
For `O=C1NC(=O)C(CC2CCCCCCCCCCC2=O)C(=O)N1` (stereo not drawn), the TGI in experiment [1], in experiment [3], in experiment [5], in experiment [6], in experiment [7] and in [8] was over 100 µM in each case. Moreover, the TGI in [10] and in experiment [9] was over 100 µM each time.
For `O=C1CC2c3ccccc3CCC2c2ccccc21` (stereo not drawn), the TGI was 79.8 µM in [1]; 41.1 µM in [2]; over 100 µM in [3]; over 100 µM in [5]; 69.2 µM in [6]; 41.8 µM in experiment [7]. Moreover, the figures for the TGI in experiment [8], in experiment [10] and in experiment [9] were over 100 µM, 53.9 µM and over 100 µM, respectively.
`CN(C)CCN1C(=O)c2ccc3c4c(ccc(c24)C1=O)C(=O)N(CCN=C=S)C3=O`: the GI50 was 0.0436 µM in [1]; 0.0529 µM in [2]; 0.0256 µM in [3]; 0.0747 µM in [4]; 0.0257 µM in [5]; 0.0267 µM in experiment [7]. In addition, the GI50 in experiment [8] is 0.153 µM; in experiment [10] it was 0.0288 µM; in experiment [9], 0.164 µM. In addition, the TGI came to 0.416 µM in experiment [1]; 0.207 µM in experiment [2]; 0.123 µM in experiment [3]; 0.224 µM in experiment [4]; 0.129 µM in experiment [5]; 0.0897 µM in experiment [7]. For the same compound, the TGI turned out to be 0.815 µM in [8], 0.173 µM in experiment [10] and 0.668 µM in experiment [9].
`COc1ccc(/C=C/C(=O)C(CC2CCC2)C(=O)/C=C/c2ccc(OC)c(OC)c2)cc1OC`: the GI50 in [1] was 1.83 µM; in experiment [2] it was 1.82 µM; in [3], 1.48 µM; in [4] it was 2.09 µM; in experiment [5], 0.6 µM; in experiment [6], 2.01 µM. In addition, the results for the GI50 in experiment [7], in [8] and in [9] were 1.04 µM, 2.55 µM and 2.69 µM, respectively. In addition, the TGI in experiment [1] was found to be 3.45 µM; in experiment [2], 3.33 µM; in experiment [3], 2.95 µM; in experiment [4] it was 5.04 µM; in experiment [5] it was 40.5 µM; in [6] it was 4.14 µM. Besides, the TGI in [7] turned out to be 3.04 µM; in experiment [8], 5.6 µM; in [9], 6.69 µM.
For `COc1cc(/C=C/c2cc(/C=C/c3ccc(O)c(OC)c3)n(C(=O)Nc3ccc(C)cc3C)n2)ccc1O`, the GI50 in experiment [1] was 0.549 µM; in experiment [2] it was 0.538 µM; in [3], 0.412 µM; in experiment [5] it was 0.317 µM; in [7], 0.327 µM; in experiment [8] it was 1.51 µM. Further, the GI50 in [10] was 0.562 µM; in experiment [9], 0.347 µM. In addition, the TGI in experiment [1] worked out at 1.76 µM; in experiment [2] it was 1.93 µM; in experiment [3], 2.11 µM; in [5], 1.37 µM; in experiment [7], 1.03 µM; in experiment [8] it was 6.85 µM. Moreover, the TGI in [10] was found to be 2.36 µM; in experiment [9], 1.21 µM.
For `Nc1ccc2cc3ccc(N)cc3nc2c1`, the GI50 in [1] was 1.97 µM [middle of 4 runs]; in experiment [3], 0.609 µM; in experiment [4], 1.16 µM [middle of 4 runs]; in [5], 0.52 µM; in experiment [7] it was 1.7 µM; in [8], 1.97 µM. Moreover, the GI50 in experiment [10] was 0.599 µM. Moreover, the TGI in experiment [1] was 11.8 µM [middle of 4 runs]; in experiment [4], 3.21 µM [middle of 4 runs]; in [5], 7.19 µM and 22.6 µM and 14.5 µM; in [8] it was 4.98 µM and 30.1 µM and 28.6 µM.
Consider `COc1cccc2c(=O)c3c(sc12)c(N1CCNCC1)nc1ccccc13`, for which the GI50 in experiment [1] is 1.73 µM; in experiment [2], 1.69 µM; in experiment [3] it was 1.6 µM; in experiment [4], 1.65 µM; in experiment [5], 1.57 µM; in experiment [6] it was 1.72 µM. The GI50 was 1.67 µM in experiment [7], 1.79 µM in [8] and 2.43 µM in experiment [10]. Besides, the TGI in experiment [1] was 3.39 µM; in [2], 3.14 µM; in experiment [3], 2.97 µM; in [4], 3.24 µM; in experiment [5], 3.28 µM; in experiment [6], 3.41 µM. Moreover, the figures for the TGI in experiment [7], in experiment [8] and in experiment [10] were 3.12 µM, 3.24 µM and 6.5 µM, respectively.
In the case of `O=C(/C=C\c1ccc(NCc2ccc(C(=O)O)cc2)cc1)CCl`, the GI50 in experiment [1] is 10.2 µM; in experiment [2], 15 µM; in [3] it was 16.1 µM; in experiment [5], 4.26 µM; in [6] it was 17 µM; in experiment [7], 11.7 µM. The GI50 in experiment [8] was 17.8 µM; in [10], 6.98 µM; in [9] it was 15.1 µM. The TGI in experiment [1] came to 23.9 µM; in experiment [2], 28.3 µM; in [3], 31.6 µM; in [5], 17.7 µM; in [6], 34.3 µM; in [7], 24.6 µM. The TGI in experiment [8] came out at 34.5 µM; in [10], 19.9 µM; in [9], 28.8 µM.
In the case of `CC1=CC(C/C(C)=C/COc2ccc3ccc(=O)oc3c2)OC1=O` (stereo not drawn), the TGI in experiment [1], in experiment [3], in [5], in experiment [6], in experiment [7] and in experiment [8] was over 100 µM throughout. Also, the TGI in experiment [10] and in experiment [9] was over 100 µM in each case.
Consider `COc1cc2[nH]c(C(=O)c3cc(OC)c(OC)c(OC)c3)c(N)c2cc1C#CC1CC1`, for which the GI50 is 3.25 µM in experiment [1]; 3.23 µM in experiment [2]; 1.3 µM in experiment [3]; 1.85 µM in experiment [5]; 3.55 µM in experiment [6]; 1.53 µM in experiment [7]. Further, the GI50 is 11.9 µM in experiment [8], 5.3 µM in [10] and 3.42 µM in [9]. For the same compound, the TGI is over 100 µM in experiment [1]; 61.1 µM in experiment [2]; over 100 µM in [3]; over 100 µM in experiment [5]; over 100 µM in [6]; 5.74 µM in [7]. The TGI in [8], in [10] and in experiment [9] was over 100 µM throughout.
Regarding `Nc1ccn(C2CCC(CO)O2)c(=O)n1` (stereo not drawn), the TGI in experiment [1], in [3], in experiment [4], in [5], in [7] and in [8] was over 1000 µM each time. For the same compound, the TGI in experiment [10] and in experiment [9] was over 1000 µM throughout. Also, the GI50 in experiment [4], in experiment [5], in experiment [7], in experiment [8] and in experiment [9] was over 1000 µM each time.
With `O=C(NCO)NCOCn1c(=O)n(CO)c(=O)n(CO)c1=O`, the TGI in experiment [1] is over 100 µM; in experiment [2], over 100 µM; in experiment [3], over 100 µM; in [4] it was over 74 µM; in experiment [6], over 94.8 µM; in experiment [7], over 100 µM. The TGI in [8], in [10] and in experiment [9] was over 100 µM throughout.
For the compound `O=c1c2ccccc2c(=O)c2c1[nH]c1c(-c3ccccc3)c(-c3ccccc3)c(=O)c12`, the GI50 in experiment [1] was 3.96 µM; in [2], 3.12 µM; in [3], 1.93 µM; in experiment [4], 2.24 µM; in experiment [5], 2.48 µM; in [6], 2.82 µM. Moreover, the GI50 in [7] is 1.92 µM; in experiment [8] it was 4.27 µM; in experiment [10] it was 2.79 µM. Besides, the TGI in [1] was 14.9 µM; in experiment [2], 7.69 µM; in experiment [3], 3.62 µM; in [4] it was 8.19 µM; in experiment [5], over 100 µM; in experiment [6] it was 12 µM. Besides, the TGI in [7] amounted to 4.48 µM; in experiment [8] it was 14.7 µM; in experiment [10], 9.33 µM.
Consider `O=C1NC2OC(C(O)CO)C(O)C2O1` (stereo not drawn), for which the TGI in [1], in [2], in [3], in experiment [4], in experiment [6] and in experiment [7] was over 100 µM throughout. Further, the TGI in [8], in experiment [10] and in experiment [9] was over 100 µM throughout.
Turning to `COc1cc(NC(C)CCCN)c2nccc(C)c2c1` (stereo not drawn), the TGI in experiment [1] was found to be 38 µM; in [3], 74.6 µM; in experiment [4] it was 35.6 µM; in experiment [5] it was 33.2 µM; in [6], 54.7 µM; in [7], 67.9 µM. The TGI was over 100 µM in [8] and 58.5 µM in [9].
Turning to `O=C1CC2CCCC23CC2(CCN13)OCCO2` (stereo not drawn), the TGI in experiment [1], in experiment [2], in [3], in [4], in experiment [6] and in [7] was over 100 µM each time. In addition, the TGI in experiment [8], in [10] and in [9] was over 100 µM throughout.
Turning to `COc1cc(/C=C/c2ccc(OC)c(OC)c2)cc(OC)c1`, the TGI in experiment [1] is 44.7 µM; in experiment [3] it was 89.8 µM; in experiment [4], over 100 µM; in experiment [5], over 100 µM; in [6], 73.6 µM; in experiment [7], 69 µM. The TGI in experiment [8], in experiment [10] and in experiment [9] was over 100 µM throughout.
Consider `COc1ccc(C(=O)COc2ccc(/C=C3\COc4ccc(OC)cc4C3=O)cc2)cc1`, for which the GI50 in experiment [1] is 16.7 µM; in experiment [3], 29.7 µM; in [4], 57.2 µM; in [5] it was 3.1 µM; in [6], 57.5 µM; in experiment [7], 21 µM. Moreover, the GI50 in experiment [8] was 30.2 µM; in experiment [10] it was 18.4 µM; in experiment [9] it was 30.6 µM. The TGI in [1] is 37.9 µM; in experiment [3], over 100 µM; in [4] it was over 100 µM; in experiment [5], 18.6 µM; in experiment [6] it was over 100 µM; in [7], 62.2 µM. In addition, the values for the TGI in experiment [8], in [10] and in experiment [9] were 86.9 µM, 66.5 µM and 81 µM, respectively.
On to `O=C1CSC(/C(=N/Nc2ccccc2)c2nc3ccccc3[nH]2)=N1`, for which the TGI is 80 µM in experiment [1]; over 100 µM in experiment [2]; over 100 µM in [3]; over 100 µM in experiment [4]; over 100 µM in experiment [6]; 73.2 µM in experiment [7]. For the same compound, the TGI was over 100 µM in experiment [8], over 100 µM in [10] and 73.5 µM in [9].
